Results taken from US20240300980A1, “HETEROCYCLIC COMPOUNDS AS KRAS INHIBITOR, AND PREPARATION THEREFOR AND USE THEREOF IN TREATMENT” (SHANGHAI KECHOW PHARMA, INC., priority 2021, published 2024).

These molecules were tested on AGS cells (KRAS^G12D) (assay: Detection of cell proliferation in vitro by MTT/MTS method (cell activity experiment)). Conditions: Homo sapiens, AGS, 72 h, AGS cells; MTT/MTS; 3 days of drug treatment; read-out: AGS IC50.
Format: cell-based
Summary of the method: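 After 3-day compound exposure (final DMSO 0.5%), viability of AGS (KRAS G12D) cells, plated 1000/well one day before dosing, was measured at 490 nm following 4 h MTT or MTS incubation. IC50 was fitted from dose–effect curves relative to DMSO-treated wells.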

Compound	IC50 [nM]
C#Cc1c(F)ccc2cc(O)cc(-c3ncc4c(-c5cnn(C(=O)CO)c5)nc(OC[C@@]56CCCN5C[C@H](F)C6)nc4c3F)c12 [Example 87, 1-(4-(7-(8-ethynyl-7-fluoro-3-hydroxynaphthalen-1-yl)-8-fluoro-2-(((2R, 7aS)-2-fluorotetrahydro-1H-pyrrolizin-7a(5H)-yl)methoxy)pyrido[4,3-d]pyrimidin-4-yl)-1H-pyrazol-1-yl)-2-hydroxyethan-1-one]	> 10000
C#Cc1c(F)ccc2cc(O)cc(-c3ncc4c(-c5cn(C(=O)CO)cn5)nc(OC[C@@]56CCCN5C[C@H](F)C6)nc4c3F)c12 [Example 88, 1-(4-(7-(8-ethynyl-7-fluoro-3-hydroxynaphthalen-1-yl)-8-fluoro-2-(((2R, 7aS)-2-fluorotetrahydro-1H-pyrrolizin-7a(5H)-yl)methoxy)pyrido[4,3-d]pyrimidin-4-yl)-1H-imidazol-1-yl)-2-hydroxyethan-1-one]	> 10000
C#Cc1cccc2cc(O)cc(-c3ccc4c(N5C[C@H]6CC[C@@H](C5)N6)nc(OC[C@@]56CCCN5C[C@H](F)C6)nc4c3F)c12 [Example 89, 4-(4-((1R,5S)-3,8-diazabicyclo[3.2.1]octan-3-yl)-8-fluoro-2-(((2R,7aS)-2-fluorotetrahydro-1H-pyrrolizin-7a(5H)-yl)methoxy)quinazolin-7-yl)-5-ethynylnaphthalen-2-ol]	1.5
C#Cc1c(F)ccc2cc(O)cc(-c3ccc4c(N5CCC6(CCCN6)CC5)nc(OC[C@@]56CCCN5C[C@H](F)C6)nc4c3F)c12 [Example 90, 5-ethynyl-6-fluoro-4-(8-fluoro-2-(((2R,7aS)-2-fluorotetrahydro-1H-pyrrolizin-7a(5H)-yl)methoxy)-4-(1,8-diazaspiro[4,5]decan-8-yl)quinazolin-7-yl)naphthalen-2-ol]	8920
C#Cc1c(F)ccc2cc(O)cc(-c3ccc4c(N5C[C@H]6CC[C@@H](C5)N6)nc(OC[C@@]56CCCN5C[C@H](F)C6)nc4c3F)c12 [Example 91, 4-(4-((1R,5S)-3,8-diazabicyclo[3.2.1]octan-3-yl)-8-fluoro-2-(((2R,7aS)-2-fluorotetrahydro-1H-pyrrolizin-7a(5H)-yl)methoxy)quinazolin-7-yl)-5-ethynyl-6-fluoronaphthalen-2-ol]	1.3
CCc1c(F)ccc2cc(O)cc(-c3ccc4c(N5C[C@H]6CC[C@@H](C5)N6)nc(OC[C@@]56CCCN5C[C@H](F)C6)nc4c3F)c12 [Example 92, 4-(4-((1R,5S)-3,8-diazabicyclo[3.2.1]octan-3-yl)-8-fluoro-2-(((2R,7aS)-2-fluorotetrahydro-1H-pyrrolizin-7a(5H)-yl)methoxy)quinazolin-7-yl)-5-ethyl-6-fluoronaphthalen-2-ol]	2.7
CCc1cccc2cc(O)cc(-c3ccc4c(N5C[C@H]6CC[C@@H](C5)N6)nc(OC[C@@]56CCCN5C[C@H](F)C6)nc4c3F)c12 [Example 93, 4-(4-((1R,5S)-3,8-diazabicyclo[3.2.1]octan-3-yl)-8-fluoro-2-(((2R,7aS)-2-fluorotetrahydro-1H-pyrrolizin-7a(5H)-yl)methoxy)quinazolin-7-yl)-5-ethylnaphthalen-2-ol]	10.1
Oc1cc(-c2ccc3c(N4C[C@H]5CC[C@@H](C4)N5)nc(OC[C@@]45CCCN4C[C@H](F)C5)nc3c2F)c2c(F)c(F)ccc2c1 [Example 94, 4-(4-((1R,5S)-3,8-diazabicyclo[3.2.1]octan-3-yl)-8-fluoro-2-(((2R,7aS)-2-fluorotetrahydro-1H-pyrrolizin-7a(5H)-yl)methoxy)quinazolin-7-yl)-5,6-difluoronaphthalen-2-ol]	1.5
Oc1cc(-c2ccc3c(N4C[C@H]5CC[C@@H](C4)N5)nc(OC[C@@]45CCCN4C[C@H](F)C5)nc3c2F)c2c(F)cccc2c1 [Example 95, 4-(4-((1R,5S)-3,8-diazabicyclo[3.2.1]octan-3-yl)-8-fluoro-2-(((2R,7aS)-2-fluorotetrahydro-1H-pyrrolizin-7a(5H)-yl)methoxy)quinazolin-7-yl)-5-fluoronaphthalen-2-ol]	13.5
